Data on 14 compounds can be found in PubChem BioAssay (NCI).

Holding throughout (experiment): NCI-60 cell line screen, 48 h
Assay [1] concerns SR leukemia.
Assay [2] relates to MDA-MB-231 breast.
Assay [3] deals with OVCAR-3 ovarian.
Assay [4] has as its system SW-620 colon.
The test system of assay [5] is HOP-62 NSCLC.
For assay [6], the system named is SK-MEL-28 melanoma.
Assay [7] has as its system SK-MEL-2 melanoma.
Assay [8] has as its system UO-31 renal.
The subject of assay [9] is EKVX NSCLC.
The subject of assay [10] is K-562 leukemia.

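Briefly, cells in 96-well plates were exposed to five compound concentrations for 48 h, and endpoints were estimated by linear interpolation. TGI: concentration producing complete growth inhibition.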

As to `CC[C@H]1C=CCC[C@@]2(C[C@@H]3CC[C@@H]4[C@H](C(=O)OCCCCCCCCCCCCCCCC(=O)N(CCCN)C[C@@H](O)CCN)[C@]5(CCC[C@@H](C)O5)NC(=[N+]34)N2)O1`, the TGI in assay [1] was 0.397 µM; in [2], 5.97 µM; in assay [3], over 10 µM; in assay [4], 3.87 µM; in assay [5] it was 2.94 µM; in [6], 2.9 µM. For the same compound, the TGI was 0.673 µM in assay [7], 1.64 µM in assay [8], 2.49 µM in assay [9] and 0.565 µM in [10].
For `CC1CC[C@]2(C(=O)O)CCC3(C)C(=C2[C@H]1C)C=CC1[C@@]2(C)CC[C@H](O)C(C)(C)C2CC[C@]13C` (stereo not given in full), the TGI in assay [1] is 66.1 µM; in [2] it was 70 µM; in assay [3], 73.1 µM; in assay [4], over 100 µM; in [5], 74.8 µM; in assay [6], 98.4 µM. For the same compound, the TGI in assay [7], in assay [9] and in assay [10] was over 100 µM in each case.
Turning to `CC(NC(=O)c1ccc(OP(=O)(OCC2=CC(=O)c3ccccc3C2=O)N(C)CCCCCl)cc1)c1ccc(OCC2CCCCC2)c(C(N)=O)c1` (stereo not given), the TGI stood at 34.3 µM in [1]; 21.3 µM in assay [2]; 17.4 µM in assay [3]; 38.3 µM in assay [4]; 32.9 µM in assay [5]; 27.2 µM in assay [6]. The TGI in assay [7] is 30.2 µM; in assay [8], 21.9 µM; in assay [10], 43.1 µM.
Turning to `O=C(CCCC(=O)N1CC(CCl)c2ccc([N+](=O)[O-])cc21)N1CC(CCl)c2ccc([N+](=O)[O-])cc21` (stereo not given), the TGI is 60.5 µM in [1]; over 100 µM in assay [2]; over 100 µM in assay [3]; over 100 µM in assay [4]; over 100 µM in [5]; over 100 µM in assay [6]. Besides, the TGI in assay [7], in assay [8] and in [10] was over 100 µM each time.
`CN(C)CCOc1ccc(-c2c(Oc3ccc(Cl)cc3)c(=O)oc3ccccc23)cc1`: the TGI in [1] was over 30.6 µM; in assay [2] it was 22.4 µM; in assay [3], 34.3 µM; in assay [4], over 62 µM; in [5], 87.8 µM; in assay [7], 22.6 µM. Further, the TGI in assay [8] is over 28.9 µM; in assay [9], 37.6 µM; in assay [10], over 60 µM.
As to `CSc1n[n+](C)cc(N)c1N`, the TGI in [1], in assay [2], in assay [3], in [4], in [5] and in assay [6] was over 100 µM each time. Besides, the TGI in assay [7], in assay [8], in [9] and in assay [10] was over 100 µM each time.
In the case of `O=S1(=O)c2ccccc2N2CCCc3cc(Cl)cc1c32`, the TGI in assay [1], in assay [2], in assay [3], in assay [4], in assay [5] and in assay [6] was over 100 µM in each case. For the same compound, the TGI in assay [7], in [8], in assay [9] and in assay [10] was over 100 µM in each case.
For `CC1(C)CCOC(=O)C(Cl)CC1Cl` (stereo not given), the TGI in assay [1], in assay [2], in assay [3], in assay [4], in assay [5] and in assay [6] was over 100 µM in each case. Besides, the TGI in [7], in [9] and in [10] was over 100 µM throughout.
`CCN(CC)C(=O)CCCCCCCCC1CO1` (stereo not given): the TGI in [1], in assay [2], in [3], in assay [4], in [5] and in [6] was over 100 µM throughout. The TGI in assay [7], in assay [8], in assay [9] and in assay [10] was over 100 µM throughout.
With `COC(=O)c1c(O)ccc2c1c1c(n2C)C(=O)c2ccccc2C1=O`, the TGI in assay [1] is over 100 µM; in assay [2], 25.8 µM; in assay [3], over 100 µM; in assay [4], over 100 µM; in assay [5], 28 µM; in assay [6] it was over 100 µM. For the same compound, the TGI in assay [7], in assay [8], in [9] and in assay [10] was over 100 µM in each case.
For `Cc1nc2ccccc2n1CCc1nc2ccccc2s1`, the TGI in assay [1], in assay [2], in assay [3], in assay [4], in assay [5] and in [6] was over 100 µM throughout. In addition, the TGI in [7], in assay [9] and in assay [10] was over 100 µM each time.
As to `CC1(C)C2CCC1C(=O)C(C=O)C2` (stereo not given), the TGI in assay [1] is 79.6 µM; in [2], over 100 µM; in assay [3], over 100 µM; in [4], over 100 µM; in assay [5], over 100 µM; in assay [6], over 100 µM. The TGI in [7], in assay [8] and in [10] was over 100 µM in each case.
In the case of `CCCCNC(=S)Nc1nc(C(=O)NNS(=O)(=O)c2ccccc2)cs1`, the TGI in [1] was over 100 µM; in assay [2] it was 68.8 µM; in assay [3], 54.2 µM; in [5] it was over 100 µM; in assay [7], 43.8 µM; in [8] it was 85.3 µM. For the same compound, the TGI in assay [9] and in assay [10] was over 100 µM throughout.
`COc1ccc(-c2cc(-c3ccc(Nc4ccnc5cc(Cl)ccc45)cc3)nc(N)c2C#N)c2ccccc12`: the TGI in assay [1], in [2], in assay [4], in assay [5], in assay [6] and in assay [7] was over 100 µM in each case. The TGI in [8], in assay [9] and in assay [10] was over 100 µM in each case.
